One may read the inhibition in vivo as the drop in the measured response relative to a control, in per cent. Read a high inhibition in vivo as a strong effect. The term ED50 denotes the dose at which the effect has come halfway, by size or by number of responders.

Holding throughout (type): functional
Experiment [1] concerns Mus musculus. In words: Analgesia was determined by writhing test in mice after 100 mg/kg oral administration; Range is 25-49%. (Writhing tests count abdominal constrictions after an irritant is injected.)
Experiment [2] is filed under the species Mus musculus. Put plainly: animal or person.
Description: The ED50 value of compound was measured for 50% inhibition for analgesia in mice by the hotplate method
Experiment [3] deals with Mus musculus. Put plainly: Analgesia was determined by writhing test in mice after 30 mg/kg oral administration; Range is 50-74%.
Experiment [4] concerns Mus musculus. Put plainly: Analgesia was determined by writhing test in mice after 10 mg/kg oral administration.
Experiment [5] concerns Mus musculus. Put plainly: Analgesia was determined by writhing test in mice after 100 mg/kg oral administration; Range is 50-74%.
Experiment [6] has as its system Mus musculus. In words: Analgesia was determined by writhing test in mice after 30 mg/kg oral administration.
The subject of experiment [7] is Mus musculus. Put plainly: The ED50 value of compound was measured for 50% inhibition for analgesia in mice after oral administration by the hotplate method.
Experiment [8] concerns Mus musculus. Put plainly: Analgesia was determined by writhing test in mice after 100 mg/kg oral administration; Range is 75-99%.

SMILES strings stand for the structures.

On to `CN1CCC2(CCCc3c(O)cccc32)C1` (stereo not given), for which the inhibition in vivo at 100 mg/kg with Mus musculus [1] was 25%.
As to `COc1cccc2c1CCCC21CCNC1` (stereo not given), in the experiment filed under Mus musculus [2], it took a dose of 48.6 mg/kg to reach the 50% effect level (ED50). Further, in the experiment on Mus musculus [3], the inhibition in vivo at 30 mg/kg is 50%.
Consider `Br.CN1CCC2(CCCc3cc(O)ccc32)C1` (stereo not given), for which the ED50 in the experiment filed under Mus musculus [2] was more than 50 mg/kg. The compound further showed an inhibition in vivo at 30 mg/kg in the experiment on Mus musculus [3] of 50%.
As to `CN1CC[C@]23c4c5ccc(O)c4O[C@H]2[C@@H](O)C=C[C@H]3[C@H]1C5.Cl` [MORPHINE HYDROCHLORIDE], it took a dose of 1.2 mg/kg to reach the 50% effect level in the experiment filed under Mus musculus [2] (ED50). Further, at 10 mg/kg the inhibition in vivo in the experiment on Mus musculus [4] was 100%.
`Oc1ccc2c(c1)CCCC21CCNC1` (stereo not given): the inhibition in vivo at 100 mg/kg in the experiment on Mus musculus [5] was 50%.
The compound `COc1ccc2c(c1)C1(CCC2)CCNC1` (stereo not given) displayed an inhibition in vivo at 100 mg/kg in the experiment with Mus musculus [1] of 25%.
`Cl.c1ccc2c(c1)CCCC21CCNC1` (stereo not given) showed an ED50 in the experiment filed under Mus musculus [2] of 13.3 mg/kg. In the experiment on Mus musculus [6], this compound showed an inhibition in vivo at 30 mg/kg of 100%.
`COc1ccc2c(c1)CCCC21CCNC1` (stereo not given) had an inhibition in vivo at 100 mg/kg with Mus musculus [1] of 25%.
Take `CN1CCC2(CCCc3ccccc32)C1.Cl` (stereo not given): the ED50 in the experiment filed under Mus musculus [2] came to 12.1 mg/kg. Moreover, the inhibition in vivo at 30 mg/kg in the experiment on Mus musculus [6] was determined as 100%.
The compound `Br.Oc1cccc2c1CCCC21CCNC1` (stereo not given) gave an ED50 in the experiment on Mus musculus [7] of more than 50 mg/kg. Further, the inhibition in vivo at 30 mg/kg with Mus musculus [3] came to 50%.
As for `CCCC1(c2cccc(O)c2)CCN(C)C1` (stereo not given) [PROFADOL], the ED50 with Mus musculus [7] turned out to be 3.9 mg/kg. The compound further yielded an inhibition in vivo at 10 mg/kg in the experiment with Mus musculus [4] of 100%.
In the experiment with Mus musculus [8], `COc1cccc2c1CCCC21CCN(C)C1` (stereo not given) yielded an inhibition in vivo at 100 mg/kg of 75%.
Consider `Oc1ccc2c(c1)C1(CCC2)CCNC1` (stereo not given), for which, in the experiment with Mus musculus [5], at 100 mg/kg the inhibition in vivo was 50%.
For the compound `COc1ccc2c(c1)CCCC21CCN(C)C1` (stereo not given), 100 mg/kg produced 50% inhibition in vivo with Mus musculus [5].
As for `COc1ccc2c(c1)C1(CCC2)CCN(C)C1` (stereo not given), the ED50 in the experiment on Mus musculus [7] is more than 50 mg/kg. Also, 30 mg/kg produced 50% inhibition in vivo with Mus musculus [3].
For the compound `Br.CN1CCC2(CCCc3ccc(O)cc32)C1` (stereo not given), in the experiment listed under Mus musculus [2], the ED50 is 42.8 mg/kg. In the experiment with Mus musculus [3], this compound gave an inhibition in vivo at 30 mg/kg of 50%.

The record behind these values is ChEMBL document CHEMBL1121615, “Synthesis and analgesic properties of some conformationally restricted analogues of profadol” (1980).
